Measurements: the NIST ThermoML archive (doi:10.1016/j.jct.2016.04.008)

Details: for mass density: 100 kPa, Buoyancy - hydrostatic balance with magnetic suspension - one sinker

CCCn1cc[n+](C)c1.F[B-](F)(F)F [1-propyl-3-methylimidazolium tetrafluoroborate]
Metastable liquid
Details	mass density [kg/m3]
263.48 K	1263.82
267.76 K	1260.36
273.92 K	1255.4
278.64 K	1251.98
283.36 K	1248.34
288.62 K	1245.07
293.07 K	1241.48
298.18 K	1237.91
303.09 K	1234.13
308.11 K	1230.24
313.13 K	1226.49
318 K	1222.86
322.91 K	1219.26
328.37 K	1215.54
333.47 K	1211.69
337.99 K	1208.71
342.79 K	1205.15
348.01 K	1201.38
353 K	1198.22
359.33 K	1194.13
363.9 K	1190.61

surface tension liquid-gas [mN/m], Metastable liquid
Details	Ring tensiometer	Willhelmy plate method
273.75 K	–	50.71
273.79 K	51.33	–
278.5 K	–	50.51
278.59 K	51.07	–
283.29 K	–	50.25
283.35 K	50.8	–
288.51 K	–	49.99
288.6 K	50.51	–
293.05 K	–	49.65
293.08 K	50.23	–
298.18 K	49.96	–
298.19 K	–	49.5
303.09 K	49.6	49.11
308.05 K	–	48.73
308.08 K	49.16	–
313.06 K	–	48.58
313.09 K	49.02	–
318 K	48.72	48.32
322.85 K	–	47.95
322.87 K	48.32	–
328.24 K	–	47.64
328.31 K	47.95	–
333.32 K	–	47.28
333.5 K	47.54	–
338.08 K	–	47.1
338.14 K	47.43	–
342.74 K	–	46.86
342.81 K	46.8	–
348.07 K	46.79	–
348.15 K	–	46.48
353.02 K	46.07	–
353.21 K	–	46.16
358.98 K	45.94	–
359.05 K	–	45.89
362.96 K	–	45.51
363.8 K	45.67	–

CCCCn1cc[n+](C)c1.F[B-](F)(F)F [1-butyl-3-methylimidazolium tetrafluoroborate]
Liquid
Details	mass density [kg/m3]
264.16 K	1227.3
268.12 K	1224.12
273.71 K	1219.13
278.76 K	1215.77
283.03 K	1212.73
288.51 K	1208.73
293.06 K	1205.28
298.21 K	1201.97
303.18 K	1198.44
307.95 K	1195.03
313.18 K	1191.08
318.12 K	1187.23
323.27 K	1183.84
328.23 K	1179.81
333.27 K	1176.33
338.88 K	1172.3
343.23 K	1169.53
348.21 K	1166.02
353.25 K	1162.72
358.57 K	1159.04
363.9 K	1155.79

CCCCCCCCCCn1cc[n+](C)c1.F[B-](F)(F)F [1-decyl-3-methylimidazolium tetrafluoroborate]
surface tension liquid-gas [mN/m], Liquid
Details	Ring tensiometer	Willhelmy plate method
283.21 K	30.74	–
287.98 K	30.53	–
288.03 K	–	30.17
293.33 K	30.27	–
293.46 K	–	29.96
298.21 K	30.11	–
298.28 K	–	29.8
303.14 K	29.86	–
303.2 K	–	29.62
308.05 K	29.66	–
308.07 K	–	29.48
313.12 K	29.45	–
313.16 K	–	29.27
318.14 K	–	29.09
318.22 K	29.18	–
322.9 K	–	28.89
322.91 K	28.87	–
328.39 K	28.69	28.66
333.13 K	–	28.48
333.2 K	28.44	–
338.26 K	–	28.28
338.28 K	28.26	–
343.17 K	28.02	–
343.25 K	–	28.12
348.56 K	–	27.89
348.57 K	27.79	–
353.03 K	–	27.7
353.07 K	27.52	–
357.72 K	–	27.55
357.75 K	27.31	–
363.98 K	27.11	27.32

Liquid
Details	mass density [kg/m3]
283.26 K	1083.12
288.04 K	1079.26
293.48 K	1075.46
298.32 K	1072.34
303.26 K	1069.35
308.12 K	1064.91
313.23 K	1061.76
318.16 K	1058.04
323.03 K	1054.91
328.43 K	1051.67
333.15 K	1048.43
338.41 K	1044.81
343.37 K	1041.55
348.69 K	1038.22
353.21 K	1034.92
357.87 K	1032.03
363.98 K	1028.48

CCCCCn1cc[n+](C)c1.F[B-](F)(F)F [1-methyl-3-pentyl-imidazolium tetrafluoroborate]
Liquid
Details	mass density [kg/m3]
263.11 K	1196.7
268.47 K	1193.07
273.58 K	1189.42
278.77 K	1185.81
283.09 K	1182.43
288.3 K	1178.63
292.92 K	1175.26
298.19 K	1171.74
303.03 K	1168.37
308.1 K	1164.61
313 K	1161.19
318.13 K	1157.51
323.84 K	1154.03
328.48 K	1150.65
333.48 K	1147.02
338.25 K	1143.81
342.51 K	1140.95
348.51 K	1137.46
354.03 K	1133.59
358.73 K	1130.69
365.22 K	1126.55

surface tension liquid-gas [mN/m], Liquid
Details	Ring tensiometer	Willhelmy plate method
263.64 K	43.08	–
269.34 K	42.79	–
273.78 K	42.67	–
278.75 K	42.24	–
283.06 K	–	41.81
283.1 K	42.19	–
288.31 K	41.94	41.58
292.93 K	–	41.36
292.94 K	41.69	–
298.2 K	41.4	41.1
303.06 K	–	40.86
303.07 K	41.17	–
308.07 K	40.88	–
308.1 K	–	40.6
313.01 K	40.64	–
313.04 K	–	40.36
318.12 K	40.35	–
318.17 K	–	40.07
323.56 K	40.02	–
323.62 K	–	39.72
328.29 K	39.81	–
328.31 K	–	39.45
333.1 K	–	39.18
333.29 K	39.49	–
338.23 K	39.13	38.94
342.51 K	38.95	–
342.52 K	–	38.68
348.1 K	38.54	–
348.11 K	–	38.42
353.72 K	38.21	–
353.84 K	–	38.09
358.24 K	38.16	–
358.37 K	–	37.87
364.6 K	37.6	–
364.61 K	–	37.57
